Results: patent US20240279602A1, “METHOD FOR PRODUCING CEREBRAL CORTICAL CELL PREPARATION DERIVED FROM HUMAN PLURIPOTENT STEM CELLS” (Kyoto University, priority 2021, published 2024)

System: human iPS cells (S2WCB1 strain, S2WCB3 strain)
Test: Efficiency of cerebral organoid formation after step (1) maintenance culture and induction of differentiation
Format: cell-based
Set-up: Efficiency of cerebral organoid formation (%): concentration or dose not given beside the values
Conditions: for Efficiency (%) of cerebral organoid formation: -Day 1 to Day 0, evaluated Day 35
Method: Step (1) and step (2) were performed according to a scheme illustrated in FIG. 3 or FIG. 5. Maintenance culture of human iPS cells (S2WCB1 strain, S2WCB3 strain) was performed in StemFit culture medium on a 6-well plate coated with iMatrix-511 (feeder-free).
The culture medium was exchanged with: • (1) a culture medium obtained by adding 5 μM SB431542 to StemFit culture medium without solution C (i.e., a bFGF-free culture medium) (FIG. 3); or • (2) Essential 6 culture medium (i.e., a bFGF-free, TGFβ-free culture medium) (FIG. 5), • and adhesion culture was performed for 1 day.
Step (2a) Induction of differentiation into neural cells was performed in a serum-free culture medium by using a method by Sakaguchi et al. (Stem Cell Reports, 13:458-473, 2019. doi: 10.1016/j.stemcr.2019.05.029.). Specifically, human iPS cells cultured in step (1) were dispersed into single cells by enzymatic treatment. The human iPS cells dispersed into single cells were seeded on a non-cell-adhesive 96-well culture plate (PrimeSurface 96 V-bottom plate, manufactured by Sumitomo Bakelite Co., Ltd.) (9,000 cells/well/100 μL), and subjected to suspension culture with Glasgow MEM (GMEM; Thermo Fisher Scientific Inc.) culture medium supplemented with 0.1 mM non-essential amino acids, 1 mM pyruvate, 0.1 mM 2-mercaptoethanol, 20% (v/v) KnockOut (TM) serum replacement, 100 U/mL penicillin, and 100 μg/ml streptomycin (hereinafter, also referred to as 20GMK) with further addition of 5 μM SB431542 (TGFβ signaling inhibitor; Tocris Bioscience) and 3 μM IWR1e (Wnt signaling inhibitor; Calbiochem), at 37° C. under 5% CO2 for 18 days. Culture medium exchange was performed every 3 days. Y-27632 was added to reach 50 μM on Day 0, and not added in the subsequent culture medium exchanges. Through the culture, cell aggregates were eventually obtained.
Step (2b) On Day 18, the cell aggregates obtained were transferred into a 90-mm dish, and subjected to shaking culture with an Orbital Shaker in DMEM/F12/GlutaMAX culture medium supplemented with 1×N2 supplement (Thermo Fisher Scientific Inc.), a chemically defined lipid concentrate (Invitrogen), 0.25 mg/mL fungizone (Gibco), 1% penicillin/streptomycin, and 0.1% amphotericin B at 37° C. under 20% 02 and 5% CO2 from Day 35 to Day 42. Culture medium exchange was performed every 3 to 4 days.
Efficiency (%) of cerebral organoid formation was calculated by the following expression.
In step (1) of the scheme in FIG. 3, culture was performed with a culture medium supplemented with any additive below during a period of −Day 1 to Day 0, induction of differentiation into neural cells was performed on Day 0, and the efficiencies of cerebral organoid formation were evaluated on Day 35. […] In FIG. 7, “None” indicates the absence of an additive.
Under the experimental system with (1) “bFGF-free-and-SB431542-supplemented culture medium”, which was obtained by adding 5 μM SB431542 to StemFit culture medium without solution C, in Example 1, periods for culture of iPS cells with “bFGF-free-and-SB431542-supplemented culture medium” were set as in a table below.

[1] = step (1) in bFGF-containing culture medium (StemFit with solution C)
[2] = step (1) in bFGF-free culture medium (StemFit without solution C)

Row | Structure (SMILES) | structure of cell culture on Day 35 (immunostaining) (additive in bFGF-free culture medium in step (1) (Exp. F)) | Efficiency (%) of cerebral organoid formation [1] | Efficiency (%) of cerebral organoid formation [2] | Efficiency of cerebral organoid formation (%) (step (1) in Essential 6 (E6) culture medium supplemented with SB431542) | Efficiency (%) of cerebral organoid formation (step (1) in bFGF-containing culture medium (StemFit with solution C), listed as SB-431542) [%]
1 | O=C(Nc1cccc2cccnc12)c1ccc(N2C(=O)[C@@H]3[C@H](C2=O)[C@@H]2C=C[C@H]3C2)cc1 [IWR1e, 4-[(3aR,4S,7R,7aS)-1,3,3a,4,7,7a-hexahydro-1,3-dioxo-4,7-methano-2H-isoindol-2-yl]-N-8-quinolinyl-benzamide] | no cerebral cortex-like structure was formed | <1% | <5% |  | 
2 | c1ccc2c(-c3cnn4cc(-c5ccc(N6CCNCC6)cc5)cnc34)ccnc2c1 [LDN-193189] |  |  | <5% |  | 
3 | NC(=O)c1ccc(-c2nc(-c3ccc4c(c3)OCO4)c(-c3ccccn3)[nH]2)cc1 [SB431542, 4-[4-(1,3-benzodioxol-5-yl)-5-(2-pyridinyl)-1H-imidazol-2-yl]-benzamide] |  | less than 5% | high efficiency | 56.9 | <5
